The source of these data is patent US8952024B2, “Herbicidal pyrimidone derivatives” (E I du Pont de Nemours and Company, priority 2009, dated 2015).

One test concerns canarygrass (Phalaris minor). Nature of the test: Test B postemergence plant response. Format: in vivo. Conditions: Postemergence, 31 g ai/ha; 0 to 100 scale (0 no effect, 100 complete control). In a few lines:
(§1)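 Visual ratings from 0 (no effect) to 100 (complete control), made against controls 13–15 days after treatment, kept in a greenhouse. Compounds were applied postemergence to potted plants at the 1- to 4-leaf stage (2–18 cm).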
`O=C(C1=C(O)C2CCC(C2)C1=O)c1cnc(-c2ccsc2)n(CC2CCCO2)c1=O` (stereo not shown) [Compound 229]: the “Plant response rating, Canarygrass” value amounted to 5.

Staying with this test, now noted: Postemergence, 62 g ai/ha; scale 0 to 100 (0 no effect, 100 complete control).
With `O=C(C1=C(O)C2CCC(C2)C1=O)c1cnc(-c2ccsc2)n(CC2CCCO2)c1=O` (stereo not shown) [Compound 229], the “Plant response rating, Canarygrass” value was determined as 15.

Staying with this test, now noted: Postemergence, 125 g ai/ha; scale 0 to 100 (0 no effect, 100 complete control).
For `O=C(C1=C(O)C2CCC(C2)C1=O)c1cnc(-c2ccsc2)n(CC2CCCO2)c1=O` (stereo not shown) [Compound 229], the “Plant response rating, Canarygrass” value came to 50.

The test is the same for the next values; noted with them: Postemergence, 250 g ai/ha; scale 0 to 100 (0 no effect, 100 complete control); 13 to 15 days.
For `O=C(C1=C(O)C2CCC(C2)C1=O)c1cnc(-c2ccsc2)n(CC2CCCO2)c1=O` (stereo not shown) [Compound 229], the “Plant response rating, Canarygrass” value was determined as 60.

The next test deals with windgrass (Apera spica-venti). The test is described as follows: Test B postemergence plant response. Conditions: Postemergence, 31 g ai/ha; 0 to 100 scale (0 no effect, 100 complete control). The test is classed as in vivo. In a few lines:
as §1
As to `O=C(C1=C(O)C2CCC(C2)C1=O)c1cnc(-c2ccsc2)n(CC2CCCO2)c1=O` (stereo not shown) [Compound 229], the “Plant response rating, Windgrass” value amounted to 0.

The same test, now with this note: Postemergence, 62 g ai/ha; scale 0 to 100 (0 no effect, 100 complete control).
Consider `O=C(C1=C(O)C2CCC(C2)C1=O)c1cnc(-c2ccsc2)n(CC2CCCO2)c1=O` (stereo not shown) [Compound 229], for which the “Plant response rating, Windgrass” value was 40.

Still in this test, the particulars now being: Postemergence, 250 g ai/ha; scale 0 to 100 (0 no effect, 100 complete control); 13 to 15 days.
As to `O=C(C1=C(O)C2CCC(C2)C1=O)c1cnc(-c2ccsc2)n(CC2CCCO2)c1=O` (stereo not shown) [Compound 229], the “Plant response rating, Windgrass” value amounted to 65.

Another test concerns chickweed (Stellaria media). Nature of the test: Test B postemergence plant response. Format: in vivo. The settings on record: Postemergence, 31 g ai/ha; 0 to 100 scale (0 no effect, 100 complete control). An outline of the steps: as §1
As to `O=C(C1=C(O)C2CCC(C2)C1=O)c1cnc(-c2ccsc2)n(CC2CCCO2)c1=O` (stereo not shown) [Compound 229], the “Plant response rating, Chickweed” value was determined as 70.

Staying with this test, now noted: Postemergence, 62 g ai/ha; scale 0 to 100 (0 no effect, 100 complete control).
For `O=C(C1=C(O)C2CCC(C2)C1=O)c1cnc(-c2ccsc2)n(CC2CCCO2)c1=O` (stereo not shown) [Compound 229], the “Plant response rating, Chickweed” value is on record as 85.

The test is the same for the next values; noted with them: Postemergence, 125 g ai/ha; scale 0 to 100 (0 no effect, 100 complete control).
With `O=C(C1=C(O)C2CCC(C2)C1=O)c1cnc(-c2ccsc2)n(CC2CCCO2)c1=O` (stereo not shown) [Compound 229], the “Plant response rating, Chickweed” value amounted to 90.

Staying with this test, now noted: Postemergence, 250 g ai/ha; scale 0 to 100 (0 no effect, 100 complete control); 13 to 15 days.
For the compound `O=C(C1=C(O)C2CCC(C2)C1=O)c1cnc(-c2ccsc2)n(CC2CCCO2)c1=O` (stereo not shown) [Compound 229], the “Plant response rating, Chickweed” value stood at 98.

Another test relates to velvetleaf (Abutilon theophrasti). The test is described as follows: Test B pre-/postemergence plant response. The test is classed as in vivo. The settings on record: Postemergence, 31 g ai/ha; 0 to 100 scale (0 no effect, 100 complete control). An outline of the steps: (§2)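 Plants treated either at seeding (loam/sand soil) or postemergence at 2 to 18 cm height, using a surfactant-containing non-phytotoxic solvent formulation. Evaluation was visual after 13 to 15 days, 0 to 100 scale relative to controls.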
`O=C(C1=C(O)C2CCC(C2)C1=O)c1cnc(-c2ccsc2)n(CC2CCCO2)c1=O` (stereo not shown) [Compound 229]: the “Plant response rating, Velvetleaf” value is 75.

The same test, now with this note: Postemergence, 62 g ai/ha; scale 0 to 100 (0 no effect, 100 complete control).
Take `O=C(C1=C(O)C2CCC(C2)C1=O)c1cnc(-c2ccsc2)n(CC2CCCO2)c1=O` (stereo not shown) [Compound 229]: the “Plant response rating, Velvetleaf” value is reported as 75.

Still in this test, the particulars now being: Postemergence, 250 g ai/ha; scale 0 to 100 (0 no effect, 100 complete control); 13 to 15 days.
`O=C(C1=C(O)C2CCC(C2)C1=O)c1cnc(-c2ccsc2)n(CC2CCCO2)c1=O` (stereo not shown) [Compound 229]: the “Plant response rating, Velvetleaf” value stood at 85.

A further test has as its system johnsongrass (Sorghum halepense). The test is described as follows: Test B pre-/postemergence plant response. Format: in vivo. The settings on record: Postemergence, 31 g ai/ha; 0 to 100 scale (0 no effect, 100 complete control). In a few lines: as §2
As to `O=C(C1=C(O)C2CCC(C2)C1=O)c1cnc(-c2ccsc2)n(CC2CCCO2)c1=O` (stereo not shown) [Compound 229], the “Plant response rating, Johnsongrass” value worked out at 70.

The same test, now with this note: Postemergence, 62 g ai/ha; scale 0 to 100 (0 no effect, 100 complete control).
`O=C(C1=C(O)C2CCC(C2)C1=O)c1cnc(-c2ccsc2)n(CC2CCCO2)c1=O` (stereo not shown) [Compound 229]: the “Plant response rating, Johnsongrass” value was determined as 100.

Still in this test, the particulars now being: Postemergence, 125 g ai/ha; scale 0 to 100 (0 no effect, 100 complete control).
As for `O=C(C1=C(O)C2CCC(C2)C1=O)c1cnc(-c2ccsc2)n(CC2CCCO2)c1=O` (stereo not shown) [Compound 229], the “Plant response rating, Johnsongrass” value is 100.

The same test, now with this note: Postemergence, 250 g ai/ha; scale 0 to 100 (0 no effect, 100 complete control); 13 to 15 days.
For `O=C(C1=C(O)C2CCC(C2)C1=O)c1cnc(-c2ccsc2)n(CC2CCCO2)c1=O` (stereo not shown) [Compound 229], the “Plant response rating, Johnsongrass” value is recorded as 100.

A further test deals with cocklebur (Xanthium strumarium). Nature of the test: Test B pre-/postemergence plant response. The test is classed as in vivo. The settings on record: Postemergence, 31 g ai/ha; 0 to 100 scale (0 no effect, 100 complete control). An outline of the steps:
as §2
As to `O=C(C1=C(O)C2CCC(C2)C1=O)c1cnc(-c2ccsc2)n(CC2CCCO2)c1=O` (stereo not shown) [Compound 229], the “Plant response rating, Cocklebur” value was 85.

The same test, now with this note: Postemergence, 62 g ai/ha; scale 0 to 100 (0 no effect, 100 complete control).
In the case of `O=C(C1=C(O)C2CCC(C2)C1=O)c1cnc(-c2ccsc2)n(CC2CCCO2)c1=O` (stereo not shown) [Compound 229], the “Plant response rating, Cocklebur” value was 90.

Staying with this test, now noted: Postemergence, 125 g ai/ha; scale 0 to 100 (0 no effect, 100 complete control).
Regarding `O=C(C1=C(O)C2CCC(C2)C1=O)c1cnc(-c2ccsc2)n(CC2CCCO2)c1=O` (stereo not shown) [Compound 229], the “Plant response rating, Cocklebur” value was 100.

Still in this test, the particulars now being: Postemergence, 250 g ai/ha; scale 0 to 100 (0 no effect, 100 complete control); 13 to 15 days.
Consider `O=C(C1=C(O)C2CCC(C2)C1=O)c1cnc(-c2ccsc2)n(CC2CCCO2)c1=O` (stereo not shown) [Compound 229], for which the “Plant response rating, Cocklebur” value came to 100.
